One may read the IC50 as the concentration that gives 50% inhibition.

For data set [1] the following is noted: cited from earlier work; for interconversion of the polymorphic form: solvent system, humidity or heating; for hygroscopicity: crystalline polymorphic form.
The test system of a further data set is IgE synthesis. Description: IgE ELISA of human PBMC treated with anti CD40 and IL-4 for three weeks. It is filed as cell-based. The following applies: 504 h, human PBMCs in presence of CD40+IL-4 for three weeks (FIGS. 11A and B), read-out: IC50 of inhibition of IgE synthesis. On the procedure: Human PBMCs (1×10^6/ml) were treated with immunomodulatory compounds in presence of anti-CD40 (2 ug/ml) and IL-4 (40 ng/ml) for three weeks. Fifty microliter of supernatant was used for IgE ELISA, following the manufacturer's instruction. The absorbance was read by ELISA reader at OD=450 nm.
IL-4 is a unique signal for B cells to produce IgE during the immunoglobulin class switch. To assess whether immunomodulatory compounds can regulated IgE synthesis, 1,3-dioxo-(2,6-dioxopiperidin-3-yl)-4-aminoisoindoline or 1-oxo-(2,6-dioxopiperidin-3-yl)-4-aminoisoindoline was incubated with human PBMCs in presence of CD40+IL-4 for three weeks. […] (FIGS. 11A and B).
Treatment of PBMC: 200 μl of 1×10^6/ml human PBMC were plated in 96 well plate, and the cells were pretreated with IMiDs at indicated concentrations (60, 6, 0.6, 0.06, 0.006, 0.0006 uM) for 30 minutes. Anti CD40 (#AHS4002, Biosource, 2 μg/ml) and IL-4 (#200-04, Pepro Tech, 40 ng/ml) were added to each well. Human PBMC in presence of IMiDs, anti CD40 and IL-4 were incubated for three weeks. Fifty microliters of supernatant was subjected to IgE ELISA.
IgE ELISA: The IgE ELISA Quantitation Kit was purchased from Bethyl Laboratories, Inc. (#E80-108). […] The ELISA plate was read at OD=450 nm in ELISA plate reader.
(In general: An ELISA detects its analyte on a solid surface through an enzyme-linked reagent.)

In the next data set the test system is CD69. The data set can be described thus: FACS analysis of CD69 expression in CD19+ B cells. Type of data set: cell-based, human. On the procedure: (§1) Human buffy coat (50 ml) was diluted with 50 ml sterile PBS (Ca^++, Mg^++ free), and mixed gently. A 25 ml aliquot of diluted buffy coat was transferred to each 50 ml centrifuge tube, and Histopaque-1077 (14 ml, #1077-1, Sigma) was gently layered into the bottom of the tube. The sample was centrifuged at 2,000 rpm for 30 min at room temperature. The interface containing mononuclear cells was transferred into 50 ml centrifuge tube, and washed once with PBS (1200 rpm, 5 min). The supernatant was discarded. Cell pellet was resuspended in Miltenyi buffer. Anti-CD19^+ microbeads were added to the suspension (10^7 cells in 80 μl of buffer, 20 μl antibody beads for 10^7 cells) and incubated for 15 min at 4° C. Cell pellet was washed once and resuspended in 1 ml Miltenyi buffer. The cell suspension was added to the magnetic column, washed with 10 ml Miltenyi buffer in the column. CD19^+ cells are released by 1 ml Miltenyi Buffer without magnetic field. CD19^+ cells were washed twice with RPMI complete medium. B cells (2×10^5) were plated in 96 well plate.
B cells were treated with 1,3-dioxo-(2,6-dioxopiperidin-3-yl)-4-aminoisoindoline (FIG. 3A) or 1-oxo-(2,6-dioxopiperidin-3-yl)-4-aminoisoindoline (FIG. 3B) in presence of anti IgM, anti CD40 and IL-4 for 3 days. The suspension of B cells was washed by PBS once, and incubated with FITC conjugated anti human CD69 for 30 min in the dark. B cells were subject to FACS analysis using flow cytometer (EPICS XL-MCL, Beckman Coulter Company).
To assess whether the effects of immunomodulatory compounds on IL-4 signaling impact on IL-4 mediated B cell activation, FACS array of immediate early expression marker CD69 expression at triplicates and six doses was examined using 1,3-dioxo-(2,6dioxopiperidin-3-yl)-4-aminoisoindoline or 1-oxo-(2,6-dioxopiperidin-3-yl)-4-aminoisoindoline. […] Thus, it is clear that immunomodulatory compounds have no impact on this process.

The test system of a further data set is TNFα. The data set can be described thus: TNFα ELISA of treated B cells. It is filed as cell-based, human. The following applies: activated CD19+ cells (FIG. 4). On the procedure:
as §1, with “plate. […]” for “plate.”
TNFα levels in 1,3-dioxo-(2,6-dioxopiperidin-3-yl)-4-aminoisoindoline or 1-oxo-(2,6-dioxopiperidin-3-yl)-4-aminoisoindoline treated B cells were determined using TNFα ELISA.

For another data set, the system named is B cells. Description: B cell proliferation by BrdU ELISA. Type of data set: cell-based, human. The following applies: 3 days (FIG. 7A). On the procedure:
as §1
B cells were pretreated with 1,3-dioxo-(2,6-dioxopiperidin-3-yl)-4-aminoisoindoline or 1-oxo-(2,6-dioxopiperidin-3-yl)-4-aminoisoindoline at the concentrations of 60 μM, 6 μM, 0.6 μM, 0.06 μM, 0.006 μM, and 0.0006 μM for 30 min, then were added 2 μg/ml of anti-IgM, 2 μg/ml of anti CD40, 40 ng/ml IL-4, 100 ng/ml of recombinant BAFF, and/or 0.5 μg/ml of LPS. B cells were typically treated with the immunomodulatory compound alone or in presence of one or more of above stimuli for 3 days. Stimulated B cells with or without the treatment with immunomodulatory compound were used for cell proliferation assay and cytokines analysis.
The crosslinking of B cell receptor antigen (“BCR”) is the primary signal for B cell activation in response to antigen, and is critical in initializing subsequent B cell activation, proliferation, and differentiation. To assess B cell activation, B cells were treated with 1,3-dioxo-(2,6-dioxopiperidin-3-yl)-4-aminoisoindoline or 1-oxo-(2,6-dioxopiperidin-3-yl)-4-aminoisoindoline in presence of stimuli for 3 days. 25 μl BrdU was added to 250 μl cell culture 24 hours before harvesting cells. B cells were dried at 60° C. after removal of labeling supernatant. 100 μl FixDenat solution was added to fix cells for 30 min at room temperature. FixDenat solution was removed by tapping plate, then 100 μl anti-BrdU-POD was added each well for 90 min, at room temperature, and the plate was washed three 3 times. 100 μl of substrate was added to plate for 10 min, then 100 μl stop solution was added. Absorbance was measured by using an ELISA microplate reader (Molecular Devices) at OD 450 nm. […]
Background: Incorporation of labelled thymidine or its analogues reports DNA synthesis.

Regarding `Nc1cccc2c1CN(C1CCC(=O)NC1=O)C2=O` (stereo not shown) [Form B, 3-(4-amino-1-oxo-1,3 dihydro-isoindol-2-yl)-piperidene-2,6-dione], in data set [1], the “interconversion of the polymorphic form” value is recorded as “converts to Form E in aqueous solvent systems”.

Take `Nc1cccc2c1CN(C1CCC(=O)NC1=O)C2=O` (stereo not shown) [Form D, 3-(4-amino-1-oxo-1,3 dihydro-isoindol-2-yl)-piperidene-2,6-dione]: in data set [1], the hygroscopicity result is “either weakly or not hygroscopic” and the “interconversion of the polymorphic form” value is “will typically convert to Form B when stressed at higher relative humidities”.

Regarding `Nc1cccc2c1CN(C1CCC(=O)NC1=O)C2=O` (stereo not shown) [1-oxo-(2,6-dioxopiperidin-3-yl)-4-aminoisoindoline], the IC50 in the data set on IgE synthesis lay in the range of 100 to 300 nM. Moreover, the CD69 expression entry in the data set on CD69 (CD19+ B cells treated with anti human IgM, anti human CD40 and IL-4, 3 days (FIGS. 3A, 3B)) is given as “dose-dependently enhanced”; in the data set on CD69 (IL-4 stimulated CD19+ B cells, triplicates, six doses (FIGS. 10A and B)), “neither immunomodulatory compound inhibited”. Moreover, the “TNFα production in B cells” value in the data set with TNFα is given as “dose dependently enhance”. Further, the B cell proliferation result in the data set on B cells (combined with IgM (anti-IgM)) is “enhance”. Further, the “effect on B cell activation/proliferation” value in the data set with B cells (compound alone) is given as “minimal effect”.

On to `Nc1cccc2c1CN(C1CCC(=O)NC1=O)C2=O` (stereo not shown) [Form C, 3-(4-amino-1-oxo-1,3 dihydro-isoindol-2-yl)-piperidene-2,6-dione], for which, in data set [1], the hygroscopicity result is on record as “not hygroscopic below about 85% RH” and the “interconversion of the polymorphic form” value is “can convert to Form B at higher relative humidities”.

Regarding `Nc1cccc2c1CN(C1CCC(=O)NC1=O)C2=O` (stereo not shown) [Form A, 3-(4-amino-1-oxo-1,3 dihydro-isoindol-2-yl)-piperidene-2,6-dione], the “relative stability of the polymorphic form” value in data set [1] (Form A among anhydrous polymorphs, Form E in aqueous solvent systems) is on record as “most thermodynamically stable anhydrous polymorph”. In addition, the hygroscopicity result in data set [1] was “weakly or not hygroscopic”.

The values are drawn from US8394832B2, “Methods and compositions using immunomodulatory compounds for the treatment of immunodeficiency disorders” (Celgene Corporation, priority 2004, dated 2013).
